Assay results taken from patent publication US20260327211A1, “MODULATORS OF A POTASSIUM CHANNEL AND OF TRPV1 CHANNEL AND USES THEREOF” (Bsense Bio Therapeutics Ltd., priority 2023, published 2026).

Legend:
humans = conditions: Rowbotham 2011; cited from earlier work
rats [1] = assay: Hot plate (53° C.); assay type: in vivo, rat; conditions: 10 mg/kg PO, 2 and 4 hours post-dose
Procedure: Hot Plate: Animals were placed on hot plate analgesia meter (IITC Life Science Inc., CA, USA) set to 53±1° C., and the time until the first escape response was observed was recorded. A response was considered when the animals lifted or licked their leg or performed kicking behavior.

rats [2] = assay: Core body temperature; assay type: in vivo, rat; conditions: 10 mg/kg
Procedure: Core Body Temperature: Following two days of habituation to the measurement method, the body temperature was measured on study day for baseline values and then again post-dosing in the time points indicated in the figure. Body temperature was measured using a probe gently inserted into the animal anus using a corn oil lubricant (C8267, Sigma-Aldrich, IL).

CHO-K1 cells = assay: In vitro micronucleus; assay type: cell-based; conditions: Plate 2 without S9, 3 hours
Procedure: (§1) The micronucleus assay was performed according to the regulatory guidelines. In brief, CHO-K1 cells were plated at 10000 cells/well in 3 plates and incubated In CHO-K1 growth medium (containing F12K, 10% FBS and 1% PS) overnight.
(§2) As a control for the S9 treatment, plate No. 1, cells were treated with cyclophosphamide as a positive control, for 3 hours. For plate No. 2, without S9 treatment, cells were treated with mitomycin C as a positive control, compounds for 3 hours, and for plate No. 3, without S9 treatment, cells were treated with bleomycin sulfate as a positive control continuously for 24 hours.
(§3) On the following day, 6 μg/mL of cytochalasin B were added to each well and plates were further incubated overnight. In the day after medium was replaced with a combined 10 μg/mL Hoechst dye solution and 0.5 μM calcein-AM in 100 μL warm DPBS for 30 minutes and the plates were scanned using CQ1 high-content analysis system.

In vitro micronucleus = assay type: cell-based; conditions: hamster, cho-k1 cells; Plate 2 without S9, 3 hours; read-out: Cytotoxicity (%) Absolute EC50
Procedure: as §1, §2, §3

hKv7.2/3 = molecular target: T1, hKv7.2/3 (Homo sapiens, UniProt O43525+O43526); assay: Kv7.2/7.3 HCS, FLIPR potassium (thallium) assay, CHO/hKv7.2/3; assay type: cell-based; conditions: read-out: Kv7.2/3 maximal opening vs. control
T1 construct: host or cells: CHO
Procedure: Cell culture: Chinese hamster ovary (CHO) cell-line cells with a constitutive expression of human Kv7.2/3 channels (B'SYS GmbH, Switzerland) were cultured in F-12 nutrient mixture (Biological Industries) supplemented with 10% fetal bovine serum (Biological Industries) and 1% penicillin-streptomycin (Biological Industries) in a humidified 5% CO2 incubator at 37° C. To maintain the stability of human Kv7.2/7.3 expression antibiotic selection was added (Puromycin 5 μg/ml).
High content screen (HCS) using FLIPR Potassium Assay Kit: A FLIPR Potassium Assay Kit (R8222 FLIPR Potassium Assay Explorer Kits, Molecular Devices) was used with the CHO/hKv7.2/3 cell line to screen molecules against the hKv7.2/7.3 ion channel target. The assay exploits the permeability of thallium ions (Tl+) through potassium (K+) channels. In this assay, Tl+ indicator dye is used to produce a bright fluorescent signal upon the binding to Tl+ conducted through the potassium channels. The intensity of the Tl+ signal is proportional to the number of potassium channels in the open state. Therefore, it provides a functional indication of the potassium channel activity. To activate the voltage-gate potassium channels, the cells were stimulated with a mixture of K+ and Tl+ to depolarize the cell membrane. The fluorescence increase in the assay represents the influx of Tl+ into the cell specifically through the potassium channel, providing a functional read-out of hKv7.2/3 activity using a fluorescent plate reader coupled with injectors used to activate the channels.
According to optimization process to achieve uniform and consistent screening conditions the following protocol was established: Cells were seeded in 384-well, black-walled, clear-bottomed Greiner #781091, at a density of 5000 cells per well 24 hours before the assay conductance and incubated overnight in their normal growth medium. On the experiment day the medium was replaced with HBSS, HEPES, and the test compound/vehicle (0.2% DMSO). Dye solution (prepared according to the manufacturer) was added to the plates, which were incubated for 1.5 h light-protected in room temperature. Tecan Spark reader plate injectors were primed with Tl+(1 mM Tl2SO4) or Tl++K+(1 mM Tl2SO4; 5 mM K2SO4) for channel activation and data correction. […] To calculate EC50 values, the data was fitted to sigmoidal regression using Prism GraphPad. The fitting was constrained to a minimum of 1 and a maximal response of about 3.6 unless a different maximal response could be clearly identified.

hKv7.4 = molecular target: T2, hKv7.4 (Homo sapiens, UniProt P56696); conditions: positive control; read-out: Known IC50, Kv7.4; cited from earlier work
T2 construct: expressed in transfected cells; host or cells: CHO

hKv7.3/5 = molecular target: T3, hKv7.3/5 (Homo sapiens, UniProt O43525+Q9NR82); conditions: positive control; read-out: Known IC50, Kv7.3/5; cited from earlier work
T3 construct: expressed in transfected cells; host or cells: CHO

[3] = test system: sodium and calcium channel; conditions: cited from earlier work
[4] = test system: KCNQ2-5-type potassium channels; conditions: cited from earlier work
HepG2 cells = conditions: positive control; read-out: Toxicity IC50; cited from earlier work
MIA-OA rats = assay: Dynamic weight bearing in MIA-OA rats; assay type: in vivo, rat; conditions: 100 mg/kg (naproxen 30 mg/kg), 6 hours post-dose
Procedure: Monosodium iodoacetate-induced osteoarthritis (MIA-OA): The animals were anaesthetized using an Isoflurane+O2 mixture. Then 50 μl of MIA at a concentration of 60 mg/mL was injected into the right knee joint using a 30 G needle. On study days 13 and 14 following MIA injection, the animals' dynamic weight bearing and response to von Frey filaments were measured.
Dynamic Weight Bearing (DWB): DWB study was performed using the DWB2 apparatus (Bioseb, Paris, France). The rats were placed in a transparent cage containing a matrix comprising around 2000 high-precision force sensors embedded in its floor where they were allowed to move freely. The force sensors measured the weight distribution on each of the four paws of the animal in grams. The animal was filmed from above using a high-definition camera, and the video feed was analyzed in real-time during the test using tracking software, allowing a precise analysis of the animal's posture and hind paws identification. Out of 5 minutes of animal behavior recording, a segment of 2 minutes was analyzed. Once the analysis was completed, the software provided the weight distribution of each hind paw as the main readout and the ratio between the injured and intact hind paws was then calculated.

T3 sequence (O43525 whole entry): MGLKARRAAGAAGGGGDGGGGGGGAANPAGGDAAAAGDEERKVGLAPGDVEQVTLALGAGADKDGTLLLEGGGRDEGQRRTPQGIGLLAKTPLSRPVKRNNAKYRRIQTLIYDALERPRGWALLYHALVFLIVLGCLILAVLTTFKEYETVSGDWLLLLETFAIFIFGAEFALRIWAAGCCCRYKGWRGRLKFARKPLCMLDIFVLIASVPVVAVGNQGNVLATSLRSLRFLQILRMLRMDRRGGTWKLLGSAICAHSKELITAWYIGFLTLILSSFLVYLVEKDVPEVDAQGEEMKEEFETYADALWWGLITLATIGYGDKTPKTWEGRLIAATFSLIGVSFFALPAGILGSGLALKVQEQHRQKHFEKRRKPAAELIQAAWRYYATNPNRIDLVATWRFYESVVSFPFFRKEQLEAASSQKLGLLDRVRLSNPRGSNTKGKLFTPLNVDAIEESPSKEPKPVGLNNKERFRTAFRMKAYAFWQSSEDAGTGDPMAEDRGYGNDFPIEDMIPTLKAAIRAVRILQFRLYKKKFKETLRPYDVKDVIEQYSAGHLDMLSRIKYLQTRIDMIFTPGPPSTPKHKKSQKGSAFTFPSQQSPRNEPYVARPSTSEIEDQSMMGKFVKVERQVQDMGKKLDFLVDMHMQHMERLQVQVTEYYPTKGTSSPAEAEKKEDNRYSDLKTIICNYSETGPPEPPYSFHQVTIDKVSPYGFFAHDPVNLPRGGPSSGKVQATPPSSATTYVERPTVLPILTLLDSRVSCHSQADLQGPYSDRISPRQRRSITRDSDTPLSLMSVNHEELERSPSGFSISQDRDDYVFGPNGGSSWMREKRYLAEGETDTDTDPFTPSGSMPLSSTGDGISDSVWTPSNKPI
T3 sequence (Q9NR82 whole entry): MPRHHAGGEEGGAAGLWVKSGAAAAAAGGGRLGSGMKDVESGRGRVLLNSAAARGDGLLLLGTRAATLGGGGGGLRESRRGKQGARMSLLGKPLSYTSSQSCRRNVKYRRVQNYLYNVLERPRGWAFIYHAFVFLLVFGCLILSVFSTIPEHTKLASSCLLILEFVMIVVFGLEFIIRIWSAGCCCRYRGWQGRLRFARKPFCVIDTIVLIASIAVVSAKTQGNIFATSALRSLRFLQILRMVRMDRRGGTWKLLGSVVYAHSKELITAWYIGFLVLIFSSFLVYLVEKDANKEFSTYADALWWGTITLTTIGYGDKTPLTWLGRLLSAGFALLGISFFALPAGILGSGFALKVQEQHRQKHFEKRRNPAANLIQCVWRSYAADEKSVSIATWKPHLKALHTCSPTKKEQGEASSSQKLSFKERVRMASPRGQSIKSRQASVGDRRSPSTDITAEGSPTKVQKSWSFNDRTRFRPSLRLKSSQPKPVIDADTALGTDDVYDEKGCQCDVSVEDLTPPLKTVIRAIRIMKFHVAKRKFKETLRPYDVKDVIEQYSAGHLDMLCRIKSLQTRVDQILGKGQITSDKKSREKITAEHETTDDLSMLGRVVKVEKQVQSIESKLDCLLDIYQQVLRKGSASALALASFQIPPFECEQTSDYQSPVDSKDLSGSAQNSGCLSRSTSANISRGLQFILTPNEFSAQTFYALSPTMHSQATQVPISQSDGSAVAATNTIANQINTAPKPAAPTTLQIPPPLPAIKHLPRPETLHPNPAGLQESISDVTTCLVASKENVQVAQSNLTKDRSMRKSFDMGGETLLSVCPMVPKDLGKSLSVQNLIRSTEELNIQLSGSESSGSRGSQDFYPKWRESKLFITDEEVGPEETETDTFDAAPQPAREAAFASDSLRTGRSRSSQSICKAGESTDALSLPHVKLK
T1 sequence (O43525 whole entry): as the sequence (O43525 whole entry) above
T1 sequence (O43526 whole entry): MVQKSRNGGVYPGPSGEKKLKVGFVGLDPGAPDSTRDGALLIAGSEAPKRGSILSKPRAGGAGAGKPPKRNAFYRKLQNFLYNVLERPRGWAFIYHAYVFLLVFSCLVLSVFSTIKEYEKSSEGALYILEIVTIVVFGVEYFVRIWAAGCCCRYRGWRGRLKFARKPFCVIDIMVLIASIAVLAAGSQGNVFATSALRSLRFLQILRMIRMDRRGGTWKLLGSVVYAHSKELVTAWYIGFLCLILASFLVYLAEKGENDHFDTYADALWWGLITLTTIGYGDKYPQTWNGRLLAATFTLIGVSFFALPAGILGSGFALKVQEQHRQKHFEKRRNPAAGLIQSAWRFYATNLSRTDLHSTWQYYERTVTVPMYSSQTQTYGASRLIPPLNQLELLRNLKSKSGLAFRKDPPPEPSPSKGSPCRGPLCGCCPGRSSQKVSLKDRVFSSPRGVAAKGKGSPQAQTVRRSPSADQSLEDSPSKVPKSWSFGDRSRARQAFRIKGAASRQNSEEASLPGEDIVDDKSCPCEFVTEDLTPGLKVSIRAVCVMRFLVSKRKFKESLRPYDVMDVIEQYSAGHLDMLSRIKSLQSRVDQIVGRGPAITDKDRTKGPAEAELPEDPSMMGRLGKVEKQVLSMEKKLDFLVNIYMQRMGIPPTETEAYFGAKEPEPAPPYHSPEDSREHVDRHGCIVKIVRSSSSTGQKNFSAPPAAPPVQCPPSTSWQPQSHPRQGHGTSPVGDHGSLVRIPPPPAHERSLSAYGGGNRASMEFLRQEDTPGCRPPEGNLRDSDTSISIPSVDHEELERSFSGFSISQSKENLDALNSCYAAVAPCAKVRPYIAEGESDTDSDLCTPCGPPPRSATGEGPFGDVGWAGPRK
T2 sequence (P56696 whole entry): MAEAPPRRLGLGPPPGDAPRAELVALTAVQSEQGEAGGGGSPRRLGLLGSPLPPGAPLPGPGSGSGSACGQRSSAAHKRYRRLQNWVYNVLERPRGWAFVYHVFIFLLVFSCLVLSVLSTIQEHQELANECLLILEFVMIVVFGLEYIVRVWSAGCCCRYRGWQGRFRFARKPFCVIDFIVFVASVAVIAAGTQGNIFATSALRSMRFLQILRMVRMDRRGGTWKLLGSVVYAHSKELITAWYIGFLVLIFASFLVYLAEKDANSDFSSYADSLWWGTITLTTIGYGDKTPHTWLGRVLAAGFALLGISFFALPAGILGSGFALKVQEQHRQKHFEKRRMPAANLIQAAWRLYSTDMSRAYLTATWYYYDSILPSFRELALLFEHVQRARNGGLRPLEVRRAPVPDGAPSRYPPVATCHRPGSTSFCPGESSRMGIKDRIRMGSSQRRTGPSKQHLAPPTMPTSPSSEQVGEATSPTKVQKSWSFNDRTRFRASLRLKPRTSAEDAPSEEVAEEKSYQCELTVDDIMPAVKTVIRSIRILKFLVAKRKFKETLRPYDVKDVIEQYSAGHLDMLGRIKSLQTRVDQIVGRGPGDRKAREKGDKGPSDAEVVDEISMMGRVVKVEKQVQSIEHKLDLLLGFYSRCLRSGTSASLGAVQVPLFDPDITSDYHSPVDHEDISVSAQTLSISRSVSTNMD

## CC(C)(C)c1ccc2c(c1)CC[C@H]2NC(=O)Nc1cccc2[nH]ncc12 [ABT102, reference compound]
humans
  Heat pain threshold, clinical: increase heat pain threshold
Rats [1]
  Hot plate escape latency: statistically significant increase in hot plate escape latency
Rats [2]; 6 hours post-dose
  Increase of core body temperature vs vehicle: 1.3 °C
Rats [2]; 10 hours post-dose
  Increase of core body temperature vs vehicle: 0.8 °C

## CO[C@@]12[C@H](COC(N)=O)C3=C(C(=O)C(C)=C(N)C3=O)N1C[C@@H]1N[C@@H]12 [Mitomycin C, reference compound]
CHO-K1 cells
  Micronucleus response Absolute MEC: >16 µM
In vitro micronucleus
  CC50 at 3 h: > 16000 nM

## CCOC(=O)Nc1ccc(NCc2ccc(F)cc2)cc1N [Retigabine, N-(2-amino-4-(4-fluorobenzylamino)-phenyl)carbamic acid ethyl ester]
hKv7.2/3
  Emax: 220%
hKv7.4
  IC50: 1500 to 5000 nM
hKv7.3/5
  IC50: 1500 to 5000 nM
[3]
  Other effects: sodium and calcium channel blocking activity
[4]
  Channel selectivity: highly selective for KCNQ2-5-type potassium channels

## NS(=O)(=O)OC[C@H]1C[C@@H](Nc2ccnc3cc(-c4cccc(SC(F)(F)F)c4)nn23)[C@H](O)[C@@H]1O [TAK243]
HepG2 cells
  IC50: ~200 nM

## COc1ccc2cc([C@H](C)C(=O)O)ccc2c1 [naproxen, reference compound]
MIA-OA rats
  Reversal of weight bearing changes: comparable reversal of weight bearing changes
